Results published in publication PMC12508057, “Discovery of ETI41 and ETI60: novel selective endosomal Toll-like receptor inhibitors for the treatment of autoimmune diseases” (Experimental & Molecular Medicine, 2025).

Experiments:
IMQ-induced psoriasis = IMQ-induced psoriasis in mice; type: in vivo, mouse; details: 60 mg/kg oral daily
Method: Six-week-old female C57BL/6J mice were assigned to the following treatment groups: vehicle (n = 5), IMQ (n = 5), ETI41 (n = 4) and ETI60 (n = 5). The mice were obtained from Orient Bio to evaluate the effects of ETI41 and ETI60 on induced psoriasis-like symptoms. This study was approved by the Institutional Animal Care and Use Committee (IACUC; approval no. 2014-0007). Psoriasis was induced using Aldara cream (3M Pharmaceuticals), which was applied topically at 62.5 mg/cm² daily from the day after hair removal until the fourth day. Mice were orally administered 60 mg/kg ETI41 or ETI60 daily commencing on the second day of induction. For IL-23-induced psoriasis, the mice were assigned to the following treatment groups: vehicle (n = 5), IL-23 (n = 5), ETI41 (n = 5), ETI60 (n = 5) and anti-IL-17 Ab (n = 5). Recombinant mouse IL-23 (0.25 mg/kg; BioLegend) was administered via intradermal injection around the ear daily, starting the day after hair removal and continuing until the eighth day. Positive control mice received intraperitoneal (IP) injections of 30 mg/kg anti-mouse IL-17A antibody (BioLegend) on days 2, 5 and 8, while test group mice were administered daily oral doses of 60 mg/kg of ETI41 or ETI60. Changes in body weight and Psoriasis Area and Severity Index (PASI) scores (erythema, scaling and thickness) were recorded daily. Mice were initially anesthetized in an induction chamber with a gas mixture of 4% isoflurane in 70:30 […] and O2, delivered at a flow rate of 0.8 l/min. Subsequently, the isoflurane concentration was reduced to 2%, and the mice were euthanized under anesthesia via endotracheal intubation. Skin samples were collected, fixed and stained with hematoxylin and eosin for histological analysis. Dermal and epidermal thicknesses were measured using a Leica DMi8 microscope (Leica). Immunohistochemical analyses were performed using primary antibodies against CD68 (R&D Systems, MAB101141), Ki-67 (Cell Signaling Technology, 12202), IL-17A (Novus Biologicals, NBP1-72027) and IL-23 (Novus Biologicals, NBP1-76697), followed by detection using biotinylated secondary antibodies (Vector Laboratories) and diaminobenzidine (Vector Laboratories) visualization. Fluorescence measurements for IL-23-induced psoriasis were performed using primary antibodies against CD68 and Ki-67, followed by Alexa Fluor-conjugated secondary antibodies (Life Technologies). Fluorescence was analyzed using a Leica DMi8 microscope.
Anti-IL17A antibody (Ab, 60 µg) was administered by IP injection as a positive control on days 2, 5 and 8. […] CD68 and Ki-67 expression patterns were determined in skin sections from a representative of each group using immunofluorescence. i Ear skin and epidermis thickness, CD68 expression and percentage of Ki-67 cells were examined from 4’,6-diamidino-2-phenylindole-stained cells. Statistical differences between the induced case and other cases were analyzed and verified using a one-tailed Student’s t-test (*P < 0.05, **P < 0.01, ***P < 0.001).

[1] = test system: endosomal and lysosomal pH; assay: pH assay of endosomes and lysosomes in RAW 264.7; type: cell-based, mouse
Method: RAW 264.7 cells were seeded into black 96-well plates at […] cells per well and incubated overnight. After washing, the cells were treated with phenol-free RPMI 1640 medium (Gibco). Following 30 min of treatment with ETI41 or ETI60, cells were incubated with 20 µg/ml of pHrodo Red Dextran (Thermo Fisher Scientific) or 10 µM LysoSensor Yellow/Blue DND-160 (Thermo Fisher Scientific). Fluorescence was measured using a BioTek Synergy HTX Multimode Microplate Reader. Data were analyzed using the BioTek Gen5 software.
Fig. 3 Binding mechanism of ETI41 and ETI60 with TLR7 and TLR9. a ETI41 and ETI60 bind to the extracellular domain of TLR7. b Detailed intermolecular interactions ofETI41 and ETI60 are shown with the key residues of TLR7. c ETI41 and ETI60 bind to the extracellular domain of TLR9. d Intermolecular interactions of ETI41 and ETI60 with the key residues of TLR9. The asterisk indicates chain A of TLR7 and TLR9. ETI41 and ETI60 are depicted in ball-and-stick models. Bonds are represented by lines, with distances measured in ångström (Å) units. […] Data presented are from three independent experiments (n = 3), and statistical differences between the induced case and other cases were analyzed and verified using a one-tailed Student’s t-test (*P < 0.05, **P < 0.01, ***P < 0.001). […]

In the case of `Cc1cc2c(N)c3c(nc2n1CCCN(C)C)CCCCCC3` [ETI41], the “Dermal inflammatory cell infiltration” value (IMQ-induced psoriasis) is reported as “inhibited”, the Dermal thickness (IMQ-induced psoriasis) is reported as “significantly reduced” and the Epidermal acanthosis (IMQ-induced psoriasis) is reported as “significantly reduced”. For the same molecule, the “IL-17A and IL-23 expression” value (IMQ-induced psoriasis) was “inhibited”, the Keratinocyte proliferation (IMQ-induced psoriasis) was “significantly reduced” and the PASI scores (IMQ-induced psoriasis) was “significantly reduced”. The “pH of endosomes containing TLR3, TLR7, TLR8 and TLR9” value [1] was “did not significantly affect”.

With `COc1ccc2c3c(N)c4c(nc3n(CCCN(C)C)c2c1)CCCC4` [ETI60] the “Dermal inflammatory cell infiltration” value (IMQ-induced psoriasis) was “inhibited”, the Dermal thickness (IMQ-induced psoriasis) was “significantly reduced” and the Epidermal acanthosis (IMQ-induced psoriasis) was “significantly reduced”. For the same molecule, the “IL-17A and IL-23 expression” value (IMQ-induced psoriasis) was “inhibited”, the Keratinocyte proliferation (IMQ-induced psoriasis) was “significantly reduced” and the PASI scores (IMQ-induced psoriasis) was “significantly reduced”. For the same molecule, the “pH of endosomes containing TLR3, TLR7, TLR8 and TLR9” value [1] was “did not significantly affect”.
